{
  "source": "patent US20060276393A1",
  "about": "“Novel compositions for preventing and treating neurodegenerative and blood coagulation disorders” (Sirtris Pharmaceuticals, Inc., priority 2005, published 2006)",
  "key": {"[1]": {"biological_target": "T1, recombinant human SIRT1 (Homo sapiens, UniProt Q96EB6)", "T1 sequence (Q96EB6 1-747)": "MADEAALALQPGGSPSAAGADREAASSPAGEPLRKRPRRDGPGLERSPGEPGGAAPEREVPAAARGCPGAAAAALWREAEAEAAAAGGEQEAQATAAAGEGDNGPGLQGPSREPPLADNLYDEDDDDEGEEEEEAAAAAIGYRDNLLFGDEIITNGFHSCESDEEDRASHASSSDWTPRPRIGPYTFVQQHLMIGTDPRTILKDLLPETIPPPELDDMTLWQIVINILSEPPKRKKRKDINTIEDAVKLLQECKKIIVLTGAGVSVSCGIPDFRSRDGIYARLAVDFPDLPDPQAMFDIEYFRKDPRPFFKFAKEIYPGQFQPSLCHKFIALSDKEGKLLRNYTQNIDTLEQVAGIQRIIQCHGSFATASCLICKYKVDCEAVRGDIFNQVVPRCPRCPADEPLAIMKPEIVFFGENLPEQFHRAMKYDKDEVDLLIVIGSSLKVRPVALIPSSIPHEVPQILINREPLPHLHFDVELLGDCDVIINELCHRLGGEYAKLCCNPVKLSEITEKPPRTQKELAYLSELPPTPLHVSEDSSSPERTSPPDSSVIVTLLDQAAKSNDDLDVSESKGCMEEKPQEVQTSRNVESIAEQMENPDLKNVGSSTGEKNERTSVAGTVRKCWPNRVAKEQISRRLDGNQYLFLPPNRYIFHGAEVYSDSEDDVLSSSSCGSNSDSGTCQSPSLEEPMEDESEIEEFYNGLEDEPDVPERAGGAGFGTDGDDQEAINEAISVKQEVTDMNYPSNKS", "test": "SIRT1 fluorescent deacetylation assay (p53-382 acetylated peptide)", "type": "biochemical"}, "[2]": {"system": "C. elegans", "test": "C. elegans lifespan", "type": "in vivo", "description": "Thus, the presence of resveratrol in the growth media of C. elegans extends their lifespan.\nBristol N2 (Caenorhabditis Genetics Center) was used as the wild-type strain. The sir-2.1 mutant strain was generated by backcrossing VC199 (sir-2.1(ok434)) to N2 four times. Cultures were grown on standard NGM media and maintained on E. coli strain OP50. For the lifespan assays, synchronized animals were transferred to treatment plates as young adults (2 d after hatching, day 0 of assay), and were transferred to fresh treatment plates every 2 days for the first 6 to 8 days of the assay. […] For some lifespan trials, heat-killed OP50 were used as a food source. OP50 cultures were heated to 65° C. for 30 minutes, then pelleted and resuspended in 1/10 volume in S Basal supplemented with 10 mM MgSO4. In all assays, worms were monitored daily for mortality by gently probing with a platinum pick. Assays were performed at 24° C. To assay worm feeding rates, worms at the indicated stages were placed on treatment plates (no FUdR) for 4-5 hours, then videoed for 1 minute using a Pixelink PL-662 camera. The frame rate was slowed and the pumping rate of the pharynx was counted. To assay fecundity, gravid hermaphrodites (5 per plate, raised from synchronized L1s on normal or treatment plates) were allowed to lay eggs on their respective media for 5 hours, and the total number of eggs was counted."}, "[3]": {"biological_target": "T2, SIRT1 deacetylase (BIOMOL) (Homo sapiens, UniProt Q96EB6)", "T2 construct": "purchased BIOMOL", "T2 sequence (Q96EB6 1-747)": "T1 sequence (Q96EB6 1-747)", "test": "High-throughput SIRT1 screening protocol (ICCB library)", "type": "biochemical", "details": "positive controls; 200 μM NAD+, 5 μM Fluor de Lys-SIRT1; resveratrol 50 μM", "description": "The reaction mixture contains (final): 0.5 units/reaction SIRT1 deacetylase (BIOMOL); 200 μM NAD^+; 5 μM Fluor de Lys-SIRT1 substrate (BIOMOL); buffer (25 mM Tris/Cl, pH 8.0, 137 mM NaCl, 2.7 mM KCl, 1 mM MgCl2, and 1 mg/ml BSA). In addition, a reaction mixture containing no enzyme was made so that each well receiving compound has a corresponding “no enzyme control” well. Reactions were performed in black 384 well plates (NUNC) in a final volume of 25 μl/well.\nThe reactions were started by combining enzyme and substrate in a reaction mixture immediately prior to aliquoting in plates (or substrate only for “no enzyme control” plates). Mixture were aliquoted to plates using Biotek μfill (Biotek Instruments). Control mixtures were manually added to designated wells. A library compound was added at a desired concentration by pin transfer to both “with enzyme” and “no enzyme” plates. Compounds were added in at least triplicate (with enzyme reaction in duplicate and no enzyme controls) at a final concentration of roughly 50 μM. The plates were incubated at 37° C for 30-60 minutes. Then 25 μl of 1× Developer II (BIOMOL) plus 2 mM nicotinamide were added to all wells to stop the reactions. The reactions were left for at least 30 minutes at 37° C. for the signal to develop. The plates were read in a microplate-reading fluorometer capable of excitation at a wavelength in the range of 350-380 nm and detection of emitted light in the range of 440-460 nm. A read time of 0.1 sec per well was used."}, "[4]": {"details": "25 μM NAD+, 25 μM p53-382 acetylated peptide"}},
  "note": "Like-named read-outs stand apart in the source and are kept apart here.",
  "data": [
    {"smiles": "Oc1ccc(/C=C/c2cc(O)cc(O)c2)cc1", "note": "[Resveratrol, 3,5,4′-Trihydroxy-trans-stilbene]", "values": [
      {"measurement": "apparent Km for NAD+ and acetylated substrate in presence of nicotinamide", "setting": "[1]; 5 μM resveratrol, 50 μM nicotinamide", "value": "raised"},
      {"measurement": "concentration at which the activating effect doubled the rate", "setting": "[1]; [4]", "value": "~11", "unit": "µM"},
      {"measurement": "concentration at which the activating effect was essentially saturated", "setting": "[1]; [4]", "value": 100, "unit": "µM"},
      {"measurement": "SIRT1 stimulating activity (in words)", "setting": "[1]; 25 μM NAD+, 25 μM p53-382 acetylated peptide, compounds at 100 μM", "value": "most active compound overall"},
      {"measurement": "effect on the two Vmax determinations", "setting": "[1]; 100 μM resveratrol", "value": "no significant effect"},
      {"measurement": "lowering of Km for NAD+", "setting": "[1]; 100 μM resveratrol, 1 mM acetylated peptide", "value": "over 5 fold"},
      {"measurement": "Vmax (+resveratrol), NAD+ varied", "setting": "[1]; 100 μM resveratrol, 1 mM p53-382 acetylated peptide", "value": 1749, "unit": "AFU/min."},
      {"measurement": "Vmax (+resveratrol), acetylated peptide varied", "setting": "[1]; 100 μM resveratrol, 3 mM NAD+", "value": 926, "unit": "AFU/min."},
      {"measurement": "decrease of acetylated peptide Km", "setting": "[1]; 100 μM resveratrol, 3 mM NAD+", "value": 35, "unit": "fold"},
      {"measurement": "Km for NAD+ and acetylated peptide in presence of nicotinamide", "setting": "[1]; 20 and 100 μM resveratrol, 50 μM nicotinamide", "value": "lowers the Km for both NAD^+ and acetylated peptide"},
      {"measurement": "Km", "setting": "[1]; read-out: Km for NAD+ (+resveratrol), 100 μM resveratrol, 1 mM p53-382 acetylated peptide", "value": 101, "unit": "µM"},
      {"measurement": "Km", "setting": "[1]; read-out: Km for p53-382 acetylated peptide (+resveratrol), 100 μM resveratrol, 3 mM NAD+", "value": 1.8, "unit": "µM"},
      {"measurement": "worms alive on day 17", "setting": "[2]; 50 worms strain N2, 100 μM, control 5 alive", "value": 17, "unit": "worms"},
      {"measurement": "lifespan extension", "setting": "[2]; sir-2.1 mutants, 100 μM, heat-killed OP50, not statistically significant", "value": 5.2, "unit": "%"},
      {"measurement": "lifespan extension", "setting": "[2]; sir-2.1 mutants, 100 μM, live OP50, P=0.81", "value": 3.3, "unit": "%"},
      {"measurement": "lifespan extension", "setting": "[2]; wild-type N2, 100 μM, live OP50", "value": 12.6, "unit": "%"},
      {"measurement": "lifespan extended (maximum)", "setting": "[2]; wild-type worms, 100 μM, heat-killed or live E. coli", "value": "up to 15%"},
      {"measurement": "activated SIRT1", "setting": "[3]", "value": 2.2, "unit": "fold"}
    ]}
  ]
}
